Measured values reported in the NIST ThermoML archive (doi:10.1021/je900387e).

Test: xn = mol fraction of the nth substance listed
Conditions: Liquid, Pycnometric method

CCCCBr [1-bromobutane] + O=C=O
Conditions	mass density [kg/m3]
322.7 K, 11600 kPa, x1 = 0.0683	826
322.7 K, 11640 kPa, x1 = 0.1495	987
322.7 K, 11680 kPa, x1 = 0.0989	884
322.7 K, 11910 kPa, x1 = 0.0461	797
322.7 K, 11910 kPa, x1 = 0.0683	832
322.7 K, 11990 kPa, x1 = 0.1495	990
322.7 K, 12130 kPa, x1 = 0.0989	890
322.7 K, 12220 kPa, x1 = 0.0683	838
322.7 K, 12290 kPa, x1 = 0.1495	994
322.7 K, 12570 kPa, x1 = 0.0683	845
322.7 K, 12610 kPa, x1 = 0.0989	897
322.7 K, 12640 kPa, x1 = 0.0461	814
322.7 K, 12660 kPa, x1 = 0.1495	997
322.7 K, 12900 kPa, x1 = 0.0683	850
322.7 K, 13010 kPa, x1 = 0.1495	1000
322.7 K, 13110 kPa, x1 = 0.0989	903
322.7 K, 13210 kPa, x1 = 0.0461	826
322.7 K, 13280 kPa, x1 = 0.0683	857
322.7 K, 13490 kPa, x1 = 0.1495	1004
322.7 K, 13640 kPa, x1 = 0.0989	910
322.7 K, 13730 kPa, x1 = 0.0683	864
322.7 K, 13820 kPa, x1 = 0.1495	1008
322.7 K, 13830 kPa, x1 = 0.0461	838
322.7 K, 13960 kPa, x1 = 0.0683	867
322.7 K, 14210 kPa, x1 = 0.0989	916
322.7 K, 14230 kPa, x1 = 0.1495	1011
322.7 K, 14620 kPa, x1 = 0.1495	1015
322.7 K, 14880 kPa, x1 = 0.0989	924
322.7 K, 15120 kPa, x1 = 0.1495	1018
322.7 K, 15160 kPa, x1 = 0.0989	926
327.6 K, 8820 kPa, x1 = 0.1495	922
327.6 K, 8950 kPa, x1 = 0.1495	924
327.6 K, 9080 kPa, x1 = 0.0245	359
327.6 K, 9100 kPa, x1 = 0.0989	786
327.6 K, 9110 kPa, x1 = 0.0245	362
327.6 K, 9140 kPa, x1 = 0.1495	927
327.6 K, 9170 kPa, x1 = 0.0245	369
327.6 K, 9220 kPa, x1 = 0.0245	375
327.6 K, 9230 kPa, x1 = 0.0989	791
327.6 K, 9270 kPa, x1 = 0.0245	382
327.6 K, 9330 kPa, x1 = 0.0245	389
327.6 K, 9340 kPa, x1 = 0.1495	930
327.6 K, 9350 kPa, x1 = 0.0683	677
327.6 K, 9360 kPa, x1 = 0.0461	555
327.6 K, 9380 kPa, x1 = 0.0245	396
327.6 K, 9380 kPa, x1 = 0.0461	559
327.6 K, 9380 kPa, x1 = 0.0683	680
327.6 K, 9390 kPa, x1 = 0.0461	563
327.6 K, 9390 kPa, x1 = 0.0989	796
327.6 K, 9420 kPa, x1 = 0.0245	401
327.6 K, 9430 kPa, x1 = 0.0461	569
327.6 K, 9460 kPa, x1 = 0.0245	406
327.6 K, 9470 kPa, x1 = 0.0461	577
327.6 K, 9470 kPa, x1 = 0.0683	688
327.6 K, 9490 kPa, x1 = 0.0461	584
327.6 K, 9520 kPa, x1 = 0.0245	414
327.6 K, 9520 kPa, x1 = 0.1495	933
327.6 K, 9540 kPa, x1 = 0.0989	801
327.6 K, 9560 kPa, x1 = 0.0461	591
327.6 K, 9570 kPa, x1 = 0.0683	696
327.6 K, 9580 kPa, x1 = 0.0245	423
327.6 K, 9650 kPa, x1 = 0.0245	431
327.6 K, 9650 kPa, x1 = 0.0461	599
327.6 K, 9700 kPa, x1 = 0.0683	705
327.6 K, 9700 kPa, x1 = 0.0989	806
327.6 K, 9710 kPa, x1 = 0.0461	606
327.6 K, 9710 kPa, x1 = 0.1495	936
327.6 K, 9720 kPa, x1 = 0.0245	440
327.6 K, 9760 kPa, x1 = 0.0461	615
327.6 K, 9790 kPa, x1 = 0.0245	449
327.6 K, 9830 kPa, x1 = 0.0461	623
327.6 K, 9830 kPa, x1 = 0.0683	714
327.6 K, 9860 kPa, x1 = 0.0245	459
327.6 K, 9890 kPa, x1 = 0.0989	811
327.6 K, 9890 kPa, x1 = 0.1495	939
327.6 K, 9920 kPa, x1 = 0.0461	631
327.6 K, 9950 kPa, x1 = 0.0245	469
327.6 K, 10000 kPa, x1 = 0.0683	723
327.6 K, 10010 kPa, x1 = 0.0461	640
327.6 K, 10030 kPa, x1 = 0.0245	480
327.6 K, 10050 kPa, x1 = 0.0245	484
327.6 K, 10060 kPa, x1 = 0.0245	486
327.6 K, 10070 kPa, x1 = 0.1495	942
327.6 K, 10080 kPa, x1 = 0.0989	817
327.6 K, 10120 kPa, x1 = 0.0461	649
327.6 K, 10190 kPa, x1 = 0.0683	733
327.6 K, 10240 kPa, x1 = 0.0461	658
327.6 K, 10290 kPa, x1 = 0.0989	822
327.6 K, 10310 kPa, x1 = 0.1495	945
327.6 K, 10360 kPa, x1 = 0.0461	668
327.6 K, 10380 kPa, x1 = 0.0683	742
327.6 K, 10500 kPa, x1 = 0.0461	678
327.6 K, 10510 kPa, x1 = 0.0989	828
327.6 K, 10560 kPa, x1 = 0.1495	949
327.6 K, 10630 kPa, x1 = 0.0683	752
327.6 K, 10660 kPa, x1 = 0.0461	688
327.6 K, 10730 kPa, x1 = 0.0989	833
327.6 K, 10780 kPa, x1 = 0.1495	951
327.6 K, 10840 kPa, x1 = 0.0461	698
327.6 K, 10920 kPa, x1 = 0.0683	762
327.6 K, 10990 kPa, x1 = 0.0461	706
327.6 K, 11000 kPa, x1 = 0.1495	954
327.6 K, 11060 kPa, x1 = 0.0989	839
327.6 K, 11240 kPa, x1 = 0.0683	773
327.6 K, 11280 kPa, x1 = 0.1495	958
327.6 K, 11310 kPa, x1 = 0.0989	845
327.6 K, 11520 kPa, x1 = 0.1495	961
327.6 K, 11590 kPa, x1 = 0.0683	783
327.6 K, 11620 kPa, x1 = 0.0989	851
327.6 K, 11790 kPa, x1 = 0.1495	964
327.6 K, 11960 kPa, x1 = 0.0989	857
327.6 K, 11990 kPa, x1 = 0.0683	794
327.6 K, 12050 kPa, x1 = 0.1495	967
327.6 K, 12310 kPa, x1 = 0.0989	862
327.6 K, 12370 kPa, x1 = 0.1495	970
327.6 K, 12460 kPa, x1 = 0.0683	805
327.6 K, 12670 kPa, x1 = 0.1495	974
327.6 K, 12710 kPa, x1 = 0.0989	869
327.6 K, 13000 kPa, x1 = 0.1495	977
327.6 K, 13040 kPa, x1 = 0.0683	817
327.6 K, 13110 kPa, x1 = 0.0989	875
327.6 K, 13350 kPa, x1 = 0.1495	981
327.6 K, 13520 kPa, x1 = 0.0989	880
327.6 K, 13650 kPa, x1 = 0.0683	829
327.6 K, 13660 kPa, x1 = 0.1495	984
327.6 K, 13960 kPa, x1 = 0.1495	987
327.6 K, 13980 kPa, x1 = 0.0989	887
327.6 K, 13990 kPa, x1 = 0.0683	835
327.6 K, 14320 kPa, x1 = 0.1495	990
327.6 K, 14470 kPa, x1 = 0.0989	893
327.6 K, 14690 kPa, x1 = 0.1495	993
327.6 K, 14740 kPa, x1 = 0.0683	848
327.6 K, 14960 kPa, x1 = 0.0683	851
327.6 K, 15000 kPa, x1 = 0.0989	900
327.6 K, 15090 kPa, x1 = 0.1495	997
332.4 K, 9170 kPa, x1 = 0.0245	317
332.4 K, 9200 kPa, x1 = 0.0245	319
332.4 K, 9250 kPa, x1 = 0.0245	323
332.4 K, 9300 kPa, x1 = 0.0245	328
332.4 K, 9350 kPa, x1 = 0.0245	332
332.4 K, 9350 kPa, x1 = 0.1495	896
332.4 K, 9400 kPa, x1 = 0.0245	336
332.4 K, 9440 kPa, x1 = 0.0245	340
332.4 K, 9490 kPa, x1 = 0.0245	345
332.4 K, 9540 kPa, x1 = 0.0245	349
332.4 K, 9580 kPa, x1 = 0.0245	354
332.4 K, 9580 kPa, x1 = 0.1495	900
332.4 K, 9640 kPa, x1 = 0.0245	359
332.4 K, 9670 kPa, x1 = 0.0989	750
332.4 K, 9690 kPa, x1 = 0.0245	364
332.4 K, 9740 kPa, x1 = 0.0245	369
332.4 K, 9760 kPa, x1 = 0.1495	903
332.4 K, 9780 kPa, x1 = 0.0989	755
332.4 K, 9790 kPa, x1 = 0.0245	375
332.4 K, 9810 kPa, x1 = 0.0461	512
332.4 K, 9830 kPa, x1 = 0.0461	516
332.4 K, 9840 kPa, x1 = 0.0245	380
332.4 K, 9840 kPa, x1 = 0.0683	622
332.4 K, 9870 kPa, x1 = 0.0683	625
332.4 K, 9890 kPa, x1 = 0.0461	521
332.4 K, 9890 kPa, x1 = 0.0989	759
332.4 K, 9890 kPa, x1 = 0.1495	906
332.4 K, 9900 kPa, x1 = 0.0245	386
332.4 K, 9900 kPa, x1 = 0.0683	629
332.4 K, 9930 kPa, x1 = 0.0461	527
332.4 K, 9950 kPa, x1 = 0.0245	392
332.4 K, 9960 kPa, x1 = 0.0683	636
332.4 K, 9970 kPa, x1 = 0.0461	533
332.4 K, 10000 kPa, x1 = 0.0683	640
332.4 K, 10000 kPa, x1 = 0.0989	764
332.4 K, 10010 kPa, x1 = 0.0245	398
332.4 K, 10020 kPa, x1 = 0.0245	399
332.4 K, 10020 kPa, x1 = 0.0461	539
332.4 K, 10040 kPa, x1 = 0.1495	909
332.4 K, 10060 kPa, x1 = 0.0461	546
332.4 K, 10070 kPa, x1 = 0.0683	647
332.4 K, 10110 kPa, x1 = 0.0989	769
332.4 K, 10120 kPa, x1 = 0.0461	552
332.4 K, 10150 kPa, x1 = 0.0683	654
332.4 K, 10180 kPa, x1 = 0.0461	559
332.4 K, 10190 kPa, x1 = 0.1495	912
332.4 K, 10240 kPa, x1 = 0.0461	566
332.4 K, 10240 kPa, x1 = 0.0683	662
332.4 K, 10240 kPa, x1 = 0.0989	774
332.4 K, 10300 kPa, x1 = 0.0461	573
332.4 K, 10340 kPa, x1 = 0.0683	670
332.4 K, 10370 kPa, x1 = 0.0461	580
332.4 K, 10370 kPa, x1 = 0.0989	778
